Experimental findings from US8754073B2, “Substituted piperazino-dihydrothienopyrimidines” (Boehringer Ingelheim International GmbH, priority 2007, dated 2014) are described below.

Chain of PDE4B (Q07343 whole entry, species assumed): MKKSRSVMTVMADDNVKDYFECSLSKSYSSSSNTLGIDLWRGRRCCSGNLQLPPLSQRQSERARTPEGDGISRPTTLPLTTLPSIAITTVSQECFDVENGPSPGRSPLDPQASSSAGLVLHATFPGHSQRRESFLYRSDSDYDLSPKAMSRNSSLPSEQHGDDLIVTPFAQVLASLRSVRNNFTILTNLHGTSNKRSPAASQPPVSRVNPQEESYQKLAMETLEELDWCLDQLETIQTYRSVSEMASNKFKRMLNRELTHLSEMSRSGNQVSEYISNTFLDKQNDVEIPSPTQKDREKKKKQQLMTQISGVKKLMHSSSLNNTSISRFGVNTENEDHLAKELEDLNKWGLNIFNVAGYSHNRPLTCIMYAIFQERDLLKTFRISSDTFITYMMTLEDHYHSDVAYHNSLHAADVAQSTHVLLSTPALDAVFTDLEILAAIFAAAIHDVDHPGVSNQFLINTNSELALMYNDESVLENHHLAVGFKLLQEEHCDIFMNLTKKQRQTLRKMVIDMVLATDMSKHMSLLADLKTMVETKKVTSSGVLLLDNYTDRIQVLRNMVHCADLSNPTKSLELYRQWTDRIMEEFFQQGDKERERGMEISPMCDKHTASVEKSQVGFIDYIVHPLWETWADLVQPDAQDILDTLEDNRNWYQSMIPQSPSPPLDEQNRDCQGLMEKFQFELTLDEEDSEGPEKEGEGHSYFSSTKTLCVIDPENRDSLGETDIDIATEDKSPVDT

One test concerns the target PDE4B (Homo sapiens, UniProt Q07343). Description: Scintillation Proximity Assay (SPA) of PDE4B enzyme activity ([H3]-cAMP cleavage). Format: biochemical. Particulars: test substance 1 μM; one-hour incubation of [H3]-cAMP with PDE4B enzyme at 30° C. In a few lines:
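Percent inhibition at 1 μM compound, measured against an uninhibited reaction. PDE4B hydrolysed tritiated cAMP for one hour at 30 °C, then scintillator beads were added to capture [H3]-5′-AMP. Light events were counted after 45 min bead settling.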
For orientation: SPA uses beads or plates that emit light when radiolabelled molecules are held near them.
What is called inhibition is the drop in the measured response relative to a control, in per cent. Take `[O-][S+]1CCc2nc(N3CCC(c4cc(-c5ccco5)n[nH]4)CC3)nc(Nc3cccc(F)c3)c21` (stereo not shown) [Example 145, (3-Fluorophenyl)-{2-[4-(5-Furan-2-Yl-2H-Pyrazol-3-Yl)-Piperidin-1-Yl]-5-Oxo-6,7-Dihydro-5H-5λ^4-Thieno[3,2-d]Pyrimidin-4-Yl}-Amine Trifluoracetat]: at 1 µM the inhibition was 96%.
`[O-][S+]1CCc2nc(N3CCC(c4ccc(F)cc4F)CC3)nc(NC3CCOCC3)c21` (stereo not shown) [Example 90, {2-[4-(2,4-Difluorophenyl)-Piperidin-1-Yl]-5-Oxo-6,7-Dihydro-5H-5λ^4-Thieno[3,2-d]Pyrimidin-4-Yl}-(Tetrahydropyran-4-Yl)-Amine]: the inhibition at 1 µM was 92%.
On to `[O-][S+]1CCc2nc(N3CCC(c4c[nH]c5ccccc45)CC3)nc(NC3(CO)CC3)c21` (stereo not shown) [Example 26], for which the inhibition at 1 µM worked out at 96%.
In turn, `CCc1[nH]c2ccc(F)cc2c1C1CCN(c2nc3c(c(NC4(CO)CC4)n2)[S+]([O-])CC3)CC1` (stereo not shown) [Example 37, (1-{2-[4-(2-Ethyl-5-Fluoro-1H-Indol-3-Yl)-Piperidin-1-Yl]-5-Oxo-6,7-Dihydro-5H-5λ^4-Thieno[3,2-d]Pyrimidin-4-Ylamino}-Cyclopropyl)-Methanol] returned an inhibition at 1 µM of 92%.
`CCC[C@H](CO)Nc1nc(N2CCC(c3ccc(Cl)cc3)CC2)nc2c1[S+]([O-])CC2` (stereo partly drawn) [Example 3, (R)-2-{2-[4-(4-chlorophenyl)-piperidin-1-yl]-5-oxo-6,7-dihydro-5H-5λ^4-thieno[3,2-d]pyrimidin-4-ylamino}-pentan-1-ol] had an inhibition at 1 µM of 94%.
The same measure, in the same setting: with `CS(=O)(=O)N1CC2(CCN(c3nc4c(c(Nc5cccc(F)c5)n3)[S+]([O-])CC4)CC2)c2ccccc21` (stereo not shown) [Example 74] the figure was 95%; with `O=C1Nc2ccccc2C2(CCN(c3nc4c(c(NC5CCOCC5)n3)[S+]([O-])CC4)CC2)N1` (stereo not shown) [Example 66], 62%.
With `O=S1(=O)CCc2nc(N3CCC(c4ccc(Cl)cc4)CC3)nc(NC3(CO)CC3)c21` [Example 333, (1-{2-[4-(4-chlorophenyl)-piperidin-1-yl]-5.5-dioxo-6,7-dihydro-5H-5λ^6-thieno[3,2-d]pyrimidin-4-ylamino}-cyclopropyl)-methanol], the inhibition at 1 µM stood at 56%.
As for `CC(C)[C@H](CO)Nc1nc(N2CCC3(CC2)c2ccccc2NC(=O)N3C)nc2c1[S+]([O-])CC2` (stereo partly drawn) [Example 14, (R)-1-(4-(1-Hydroxy-3-Methylbutan-2-Ylamino)-5-Oxo-6,7-Dihydro-5H-5λ^4-Thieno[3,2-d]Pyrimidin-2-Yl)-3′-Methyl-1′H-Spiro[Piperidin-4,4′-Quinazolin]-2′(3′H)-One], the inhibition at 1 µM was determined as 60%.
The molecule `[O-][S+]1CCc2nc(N3CCC(c4cc(-c5ccco5)n[nH]4)CC3)nc(NC3(CO)CC3)c21` (stereo not shown) [Example 114] gave an inhibition at 1 µM of 96%.
`[O-][S+]1CCc2nc(N3CCC(c4noc5ccc(F)cc45)CC3)nc(NC3(CO)CC3)c21` (stereo not shown) [Example 106] returned an inhibition at 1 µM of 95%.
`COC(=O)c1cccc(C2CCN(c3nc4c(c(N[C@@H](CO)C(C)C)n3)[S+]([O-])CC4)CC2)c1` (stereo partly shown) [Example 151] displayed an inhibition at 1 µM of 94%.
With `[O-][S+]1CCc2nc(N3CCC(c4ccc5ccccc5c4)CC3)nc(NC3CCOCC3)c21` (stereo not shown) [Example 127], the inhibition at 1 µM was 96%.
On to `[O-][S+]1CCc2nc(N3CCC(c4cccc(Cl)c4)CC3)nc(Nc3cccc(F)c3)c21` (stereo not shown) [Example 84], for which the inhibition at 1 µM was 95%.
The same measure, in the same setting: with `N#CC1(c2ccccc2)CCN(c2nc3c(c(NC4(CO)CC4)n2)[S+]([O-])CC3)CC1` (stereo not shown) [Example 40] the figure was 94%; with `[O-][S+]1CCc2nc(N3CCC(c4cccc(Cl)c4)CC3)nc(NC3CCOCC3)c21` (stereo not shown) [Example 69], 93%; with `Cc1noc(C2CCN(c3nc4c(c(NC5CCOCC5)n3)[S+]([O-])CC4)CC2)n1` (stereo not shown) [Example 68], 93%.
In turn, `Cc1noc(C2CCN(c3nc4c(c(Nc5cccc(F)c5)n3)[S+]([O-])CC4)CC2)n1` (stereo not shown) [Example 83] came in with an inhibition at 1 µM of 96%.
As for `[O-][S+]1CCc2nc(N3CCC(c4cccc(F)c4)CC3)nc(NC3(CO)CC3)c21` (stereo not shown) [Example 9], the inhibition at 1 µM was 95%.

Staying with this test, now noted: test substance 1 μM; one-hour incubation with [H3]-cAMP at 30° C.
Consider `CC(C)[C@H](CO)Nc1nc(N2CCC(CO)(c3ccc(Cl)cc3)CC2)nc2c1[S+]([O-])CC2` (stereo partly shown) [Example 300], for which the inhibition at 1 µM came to 86%.
`CN1CCC(N(C)C(=O)c2ccc(C3CCN(c4nc5c(c(NC6CCOCC6)n4)[S+]([O-])CC5)CC3)cc2)CC1` (stereo not shown) [Example 228] gave an inhibition at 1 µM of 94%.
For `CN1C[C@@H](Nc2nc(N3CCC(c4n[nH]c5ccccc45)CC3)nc3c2[S+]([O-])CC3)CCC1=O` (stereo partly shown) [Example 219], the inhibition at 1 µM amounted to 82%.
Take `CC(C)[C@H](CO)Nc1nc(N2CCC(c3cc(-c4cccs4)[nH]n3)CC2)nc2c1[S+]([O-])CC2` (stereo partly shown) [Example 292]: the inhibition at 1 µM is 83%.
The molecule `CC(C)(C)OC(=O)NC1CC1Nc1nc(N2CCC(c3ccc(Cl)cc3)CC2)nc2c1[S+]([O-])CC2` (stereo not shown) [Example 231, tert-butyl (2-{2-[4-(4-chlorophenyl)-piperidin-1-yl]-5-oxo-6,7-dihydro-5H-5λ^4-thieno[3,2-d]pyrimidin-4-ylamino}-cyclopropyl)-carbamidate] displayed an inhibition at 1 µM of 94%.
In turn, `CS(=O)(=O)NCC1(c2ccccc2)CCN(c2nc3c(c(NC4(CO)CC4)n2)[S+]([O-])CC3)CC1` (stereo not shown) [Example 324] displayed an inhibition at 1 µM of 89%.
As for `O=C(c1ccc(F)cc1)C1(c2ccc(F)cc2)CCN(c2nc3c(c(NC4CCOCC4)n2)[S+]([O-])CC3)CC1` (stereo not shown) [Example 297], the inhibition at 1 µM is 73%.
Turning to `CN1C[C@@H](Nc2nc(N3CCC(C#N)(c4ccc(F)cc4)CC3)nc3c2[S+]([O-])CC3)CCC1=O` (stereo partly shown) [Example 294], the inhibition at 1 µM amounted to 88%.
Same read-out and setting: next, `COCC(=O)NCC1(c2ccccc2)CCN(c2nc3c(c(N[C@H]4CCC(=O)N(C)C4)n2)[S+]([O-])CC3)CC1` (stereo partly shown) [Example 202, 2-methoxy-N-{1-[4-(1-methyl-6-oxopiperidin-3-ylamino)-5-oxo-6,7-dihydro-5H-5λ^4-thieno[3,2-d]pyrimidin-2-yl]-4-phenylpiperidin-4-ylmethyl}-acetamide]: 96%; `[O-][S+]1CCc2nc(N3CCC(c4cc(-c5cccs5)[nH]n4)CC3)nc(NC3CCOCC3)c21` (stereo not shown) [Example 284]: 83%; `CN(C(=O)c1ccc(OC2CCN(c3nc4c(c(NC5CCOCC5)n3)[S+]([O-])CC4)CC2)cc1)C1CCOCC1` (stereo not shown) [Example 237]: 95%.
On the same count and under the same terms, next, `Cc1oc(C2CCN(c3nc4c(c(N[C@H]5CCC(=O)N(C)C5)n3)[S+]([O-])CC4)CC2)nc1-c1ccccc1` (stereo partly shown) [Example 275, 1-methyl-5-{2-[4-(5-methyl-4-phenyloxazol-2-yl)-piperidin-1-yl]-5-oxo-6,7-dihydro-5H-5λ^4-thieno[3,2-d]pyrimidin-4-ylamino}-piperidin-2-one]: 95%.
On the same count and under the same terms, next, `CN1C[C@@H](Nc2nc(N3CCC(O)(c4ccc(Cl)cc4)CC3)nc3c2[S+]([O-])CC3)CCC1=O` (stereo partly shown) [Example 254]: 92%.
`CN1C[C@@H](Nc2nc(N3CCC(c4cc5ccccc5o4)CC3)nc3c2[S+]([O-])CC3)CCC1=O` (stereo partly shown) [Example 187] gave an inhibition at 1 µM of 98%.
Still for that read-out and setting: next, `[O-][S+]1CCc2nc(N3CCC(Oc4ccccc4Cl)CC3)nc(NC3CCOCC3)c21` (stereo not shown) [Example 179]: 75%; `CCN1CCc2ccc(OC3CCN(c4nc5c(c(NC6CCOCC6)n4)[S+]([O-])CC5)CC3)cc2CC1` (stereo not shown) [Example 234]: 95%.
Regarding `[O-][S+]1CCc2nc(N3CCC(COCc4ccccc4)(c4ccc(Cl)cc4)CC3)nc(NC3CCOCC3)c21` (stereo not shown) [Example 310], 1 µM produced 92% inhibition.
The molecule `[O-][S+]1CCc2nc(N3CCC(O)(c4ccc(Cl)cc4)CC3)nc(NC3(CO)CC3)c21` (stereo not shown) [Example 289] displayed an inhibition at 1 µM of 81%.
The same measure, in the same setting: next, `CN1C[C@@H](Nc2nc(N3CCC(C(=O)c4ccc(F)cc4)(c4ccc(F)cc4)CC3)nc3c2[S+]([O-])CC3)CCC1=O` (stereo partly shown) [Example 203, 5-{2-[4-(4-fluorobenzoyl)-4-(4-fluorophenyl)-piperidin-1-yl]-5-oxo-6,7-dihydro-5H-5λ^4-thieno[3,2-d]pyrimidin-4-ylamino}-1-methylpiperidin-2-one]: 96%; `N#Cc1ccc(OC2CCN(c3nc4c(c(NC5(CO)CC5)n3)[S+]([O-])CC4)CC2)cc1` (stereo not shown) [Example 322]: 91%; `CC(C)c1ccc(OC2CCN(c3nc4c(c(NC5CCOCC5)n3)[S+]([O-])CC4)CC2)cc1` (stereo not shown) [Example 269]: 94%.
With `[O-][S+]1CCc2nc(N3CCC(Oc4ccc(F)cc4)CC3)nc(NC3CCOCC3)c21` (stereo not shown) [Example 166], at 1 µM the inhibition was 92%.
The same measure, in the same setting: with `CC(C)N1CCc2ccc(OC3CCN(c4nc5c(c(NC6CCOCC6)n4)[S+]([O-])CC5)CC3)cc2CC1` (stereo not shown) [Example 235] the figure was 87%.
The molecule `[O-][S+]1CCc2nc(N3CCC(O)(c4ccc(Cl)cc4)CC3)nc(NC3CCOCC3)c21` (stereo not shown) [Example 288] came in with an inhibition at 1 µM of 89%.
On to `[O-][S+]1CCc2nc(N3CCC(COCc4ccccc4)(c4ccc(Cl)cc4)CC3)nc(Nc3cccc(F)c3)c21` (stereo not shown) [Example 306, {2-[4-benzyloxymethyl-4-(4-chlorophenyl)-piperidin-1-yl]-5-oxo-6,7-dihydro-5H-5λ^4-thieno[3,2-d]pyrimidin-4-yl}-(3-fluorophenyl)-amine], for which the inhibition at 1 µM amounted to 89%.
The molecule `CN1C[C@@H](Nc2nc(N3CCC(c4cc(-c5cccs5)[nH]n4)CC3)nc3c2[S+]([O-])CC3)CCC1=O` (stereo partly shown) [Example 286] yielded an inhibition at 1 µM of 89%.
Same read-out and setting: with `Cn1nc(C2CCN(c3nc4c(c(NC5CCOCC5)n3)[S+]([O-])CC4)CC2)cc1-c1ccco1` (stereo not shown) [Example 198, {2-[4-(5-furan-2-yl-1-methyl-1H-pyrazol-3-yl)-piperidin-1-yl]-5-oxo-6,7-dihydro-5H-5λ^4-thieno[3,2-d]pyrimidin-4-yl}-(tetrahydropyran-4-yl)-amine] the figure was 94%.
